Test results from PMC8138767, “Intrinsically disordered substrates dictate SPOP subnuclear localization and ubiquitination activity” (The Journal of Biological Chemistry, 2021).
“Also recorded” adds a separate entry of the source.

Assays:
HeLa cells = experiment: Immunofluorescence: subcellular localization / phase separation of the protein itself; format: cell-based; conditions: confocal fluorescence microscopy
Protocol: HeLa cells were cultured under sterile conditions with Dulbecco’s modified Eagle’s medium (DMEM) (Gibco) supplemented with 10% fetal bovine serum and antibiotics/antimycotics (Gibco) (see Table S5 for key reagents and resources). T-REx-293 cells (cat. no. R710-07) were obtained from Invitrogen. Cells were grown on DMEM supplemented with 10% fetal bovine serum (Gibco), GlutaMax (Gibco), and Penicillin-Streptomycin (Gibco) and kept under selection by 5 μg/ml blasticidin. All cells were grown at 37 °C under 5% CO2 and were mycoplasma free at the time the experiments were performed.
A plasmid encoding full-length human Pdx1 (amino acids 1-283) in pcDNA3.1 with a C-terminal GFP tag was purchased from GenScript. Full-length mouse SPOP (identical to the human sequence) with a V5 epitope tag in pcDNA3 was generated previously ([21]). The coding sequence for full-length mouse SPOP was inserted into pcDNA4/TO/myc (Invitrogen) for the T-REx system. pcDNA3-myc-CUL3 (cat no. 19893) and pcDNA–HA2–ROC1 (Rbx1) (cat no. 19897) were obtained from Addgene. pcDNA3 containing His-ubiquitin was a gift from Wenyi Wei.
For immunofluorescence experiments, 0.5 × 10^6 cells were seeded on borosilicate glass coverslips in 6-well plates. After 24 h, cells were transfected with 400 ng of each plasmid using the Qiagen Effectene transfection reagent according to the manufacturer protocol. 24 h after transfection, the cells were treated with 4% paraformaldehyde in PBS for 30 min at RT. Cells were permeabilized with 0.1% Triton X-100 in PBS (PBST) for 5 min at 21 °C, followed by blocking in 0.5% BSA in PBST for 1 h at 21 °C. Signal from GFP-tagged proteins was observed directly. […] All images were analyzed and prepared in Fiji ([53]).
All immunofluorescence data were averaged over three biological replicates. […] Next, the raw GFP intensity data points (one data point per cell analyzed) were plotted to generate a violin plot distribution. […]

SPOP28–359 = target: T1, SPOP28–359 (Homo sapiens, UniProt O43791); experiment: Competition fluorescence anisotropy, displacement of f-Puc from oligomeric SPOP28–359; format: binding; conditions: competition FA; Fig. 5B and Table S4
T1 construct: A plasmid encoding His–SUMO–SPOP human residues 28 to 359; His-SUMO (N, cleaved yes); made in house; host or cells: E. coli Rosetta BL-21(DE3)
T1 sequence (O43791 28-359): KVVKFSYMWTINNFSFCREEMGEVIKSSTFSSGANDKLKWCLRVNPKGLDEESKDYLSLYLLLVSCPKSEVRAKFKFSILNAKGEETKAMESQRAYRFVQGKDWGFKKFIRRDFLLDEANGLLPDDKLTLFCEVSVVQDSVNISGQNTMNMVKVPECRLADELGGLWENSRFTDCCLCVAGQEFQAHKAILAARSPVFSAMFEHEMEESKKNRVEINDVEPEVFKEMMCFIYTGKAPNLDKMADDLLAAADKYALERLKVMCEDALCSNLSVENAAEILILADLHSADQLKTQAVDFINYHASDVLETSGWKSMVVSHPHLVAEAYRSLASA
Text: An Escherichia coli codon-optimized DNA sequence encoding amino acids 205 to 283 of the human Pdx1 sequence (Pdx1-C) in the multiple cloning site of pET49b(+) was purchased from GeneArt (Thermo Fisher). The pET49b(+) backbone encodes for N-terminal glutathione S-transferase and 6X His tags, followed by a 3C protease recognition motif. In all experiments described herein, a mutant containing an exogenous tryptophan at the N terminus of the human Pdx1-C sequence was used for the purposes of quantitation. Mutations in Pdx1-C were generated by Q5 site-directed mutagenesis (New England Biolabs) with primers designed on NEBbasechanger.com according to the manufacturer protocol. […]
All FA experiments were conducted in 50 mM sodium phosphate, pH 6.5, 50 mM sodium chloride, 5 mM DTT, 1% BSA, and 0.01% Triton X-100. In all experiments, the source of fluorescence signal was f-Puc purchased from GenScript, at a final concentration of 40 nM. […] The fluorescence polarization of each well was measured (from which FA was calculated) using either a TECAN Infinite M1000 Pro or BioTek Synergy 4 fluorometer. […] FA data points were fit to a complete competitive binding model ([23]) to determine dissociation constants using in-house Python scripts (see Quantification and statistical analysis). […]

SPOP = conditions: previously described, no reference given; cited from earlier work
Text: SPOP derives its name from the […]. Specifically, SPOP colocalizes with nuclear speckles but has also been reported in other subnuclear compartments ([24], [26]). The nuclear speckles that house SPOP in the absence of high concentrations of substrate are liquid-like in nature ([21]). The SPOP substrate DAXX typically localizes to promyelocytic leukemia bodies ([27]).

enhancement in binding affinity to oligomeric SPOP28–359 compared with SPOP–MATH (SPOP28–359): ~10 fold
Substance: Pdx1: full-length human Pdx1 (amino acids 1-283) with a C-terminal GFP tag
localization / phase separation in cells (HeLa cells): did not undergo observable partitioning to any nuclear body; also recorded: do not form phase-separated compartments in cells
localization / phase separation in cells (HeLa cells; listed as GFP–Pdx1): does not localize to punctate structures in cells; also recorded: localizes to the nucleus (marked by DAPI, blue) and does not perturb the formation of or partition to nuclear speckles
type of ubiquitination previously described (SPOP): primarily monoubiquitination
